# B1: BamHI: restriction endonuclease (protein, UniProt P23940 1-213, looked up)
# Type II restriction enzyme …: MEVEKEFITDEAKELLSKDKLIQQAYNEVKTSICSPIWPATSKTFTINNTEKNCNGVVPIKELCYTLLEDTYNWYREKPLDILKLEKKKGGPIDVYKEFIENSELKRVGMEFETGNISSAHRSMNKLLLGLKHGEIDLAIILMPIKQLAYYLTDRVTNFEELEPYFELTEGQPFIFIGFNAEAYNSNVPLIPKGSDGMSKRSIKKWKDKVENK
# B2: CalC: polypeptide conferring calicheamicin resistance, 181 amino acids, SEQ ID. NO. 2 (protein)
# chain: MTQEKTAPAAKSTTTKSTAAKKPKPPNYDPFVRHSVTVKADRKTAFKTFLEGFPEWWPNNFRTTKVGAPLGVDKKGGRWYEIDEQGEEHTFGLIRKVDEPDTLVIGWRLNGFGRIDPDNSSEFTVTFVADGQKKTRVDVEHTHFDRMGTKHAKRVRNGMDKGWPTILQSFQDKIDEEGAKK
# modifications: Bacteria
# Columns and labels:
# [1] = system: break light A (calicheamicin recognition sequence 5′-TCCT-3′); assay: Molecular break light assay, break light A; assay type: biochemical; details: for Maximum fluorescence obtained upon cleavage of break light A: excess DTT
# Excerpt: (§1) The invention further provides for a method of assaying the calicheamicin-induced DNA cleavage and its CalC-mediated inhibition using the molecular break light assay. Two molecular break lights (MLBs) for the experiments are described in example 7. Break light A is comprised of a 10-base pair stem which contained the known calicheamicin recognition sequence 5′-TCCT-3′, while break light B carries the BamHI endonuclease recognition sequence 5′-GGATCC-3′. The 5′-fluorophore of both probes was fluorescein (FAM, absorbancemax=485 nm, emissionmax=517 nm) while the corresponding 3′-quencher was 4-(4′-dimethylaminophenylazo)benzoic acid (DABCYL). Generally, MLBs operate by a separation of the fluorophore-quencher pair resulting a corresponding fluorescent signal.
# (§2) The invention further provides for a method of assaying the calicheamicin-induced DNA cleavage and its CalC mediated inhibition using the molecular break light assay. Break light A was comprised of a 10-base pair stem which contained the known calicheamicin recognition sequence 5′-TCCT-3′, while break light B carried the BamHI endonuclease recognition sequence 5′-GGATCC-3′. […] The loop of both probes consisted of a T4 loop to ensure non-hybridizing interactions. The 5′-fluorophore of both probes was fluorescein (FAM, absorbancemax=485 nm, emissionmax=517 nm) while the corresponding 3′-quencher was 4-(4′-dimethylaminophenylazo)benzoic acid (DABCYL). Previous studies have shown DABCYL to serve as a universal quencher in molecular beacons and there is significant spectral overlap (1.02×10^−15 M^−1 cm^3) between the emission spectrum of FAM and the absorption spectrum of DABCYL.
# Enzymalic Cleavage as Proof of Principle. […] Specifically, only break light B should cleave in the presence of the restriction endonuclease BamHI while both A and B should be digested by the non-specific nuclease DNaseI. […] In comparison, control samples containing break lights alone or break lights in the presence of BSA gave no change in fluorescence over >2 hr at 37° C. Given the lack of fluorescence in the absence of enzyme, the designed break lights show no appreciable melting at the designated assay temperature.
# Enediyne-Catalyzed Cleavage. Previous assays for enediyne cleavage of DNA relied upon discontinuous assays using radioactive DNA probes, electrophoresis and subsequent phosphoimager analysis. In contrast, by using break lights one can directly follow the extent of DNA cleavage by a specific enediyne in real time with high sensitivity. […] Under the conditions described, this assay allows the detection of 1 in the pM range. This sensitivity compares to that of the biochemical induction assay (BIA), the method of choice in detecting DNA-damaging agents. […] This supports the view that the specificity of 1 is more dependent upon context and perhaps less so on DNA sequence. It should also be noted that 1 leads to predominately double-stranded cleavage while 2 provides single-stranded nicks and the current molecular break light assay can not distinguish these two phenomena.
# CalC inhibits calicheamicin mediated DNA cleavage. […] 3.6 pM break light A is coincubated with 3.5 nM calicheamicin with increasing amounts of CalC (0.0 nm, 1.3 nm, 2.6 nm, 3.9 nm, 5.2 nm). Complete inhibition of calicheamicin is achieved with roughly 2-fold excess of CalC. CalC has no effect on esperamicin-induced cleavage of DNA (data not shown).
# [2] = system: E. coli; assay: Calicheamicin resistance on transgenic expression of calC in E. coli; assay type: cell-based
# Excerpt: (§3) DNA containing calC was cloned into an inducible vector, using known methods, resulting in overexpression of calC. The polypeptide product (CalC) was then isolated and purified to homogeneity. […] Another aspect of the invention is an expression vector containing calC or a fragment of calC coding for a bioactive molecule. There is also provided a transformed host cell, preferably bacteria, more preferably E. coli, containing calC or a fragment of calC coding for a bioactive molecule. Such transgenic expression of calC results in an 10^5-fold increase in calicheamicin resistance in E. coli, a 100-fold increase in resistance in S. lividans, and a 50-fold increase in resistance in yeast.
# [3] = system: break light B (BamHI recognition sequence 5′-GGATCC-3′); assay: Molecular break light assay, break light B; assay type: biochemical
# Excerpt: as §1
# as §2, with “Previous studies have shown DABCYL to serve as a universal quencher in molecular beacons and there is significant spectral overlap (1.02×10^−15 M^−1 cm^3) between the emission spectrum of FAM and the absorption spectrum of DABCYL.” left out
# Enzymalic Cleavage as Proof of Principle. […] In comparison, control samples containing break lights alone or break lights in the presence of BSA gave no change in fluorescence over >2 hr at 37° C. Given the lack of fluorescence in the absence of enzyme, the designed break lights show no appreciable melting at the designated assay temperature.
# Consistent with this finding, PAGE analysis of the reaction products confirmed the presence of a […] after excess treatment with BamHI which is completely degraded upon DNaseI digestion. As a result, the fluorescence maxium observed with excess BamHI was designated 100% cleavage for the BamHI kinetic studies described below. […]
# [4] = system: S. lividans; assay: Calicheamicin resistance on transgenic expression of calC in S. lividans; assay type: cell-based
# Excerpt: as §3
# [5] = system: HT1080 (human) cell line; assay: Calicheamicin resistance on transgenic expression of calC in HT1080 cell line; assay type: cell-based
# Excerpt: The present invention provides for the transformation of human cells with the calC gene. The transgenic expression of calC in the HT1080 (human) cell line increased its resistance to calicheamicin 10-fold. This technique allows bone marrow cells, for example, to be removed from a patient being treated with calicheamicin, and for these cells to be transformed with calC, and for the transformed cells to be returned to the patient. This allows the patient to tolerate treatment with calicheamicin or allows the patient to receive higher doses of calicheamicin as the returned human-calC-transformed cells have calicheamicin resistance. The transformation is performed by methods known in the art. The embodiment of the invention would be applicable to many diseases being treated with calicheamicin.
# [6] = system: CalC; assay: Interaction of calicheamicin with CalC measured by CalC tryptophan fluorescence; assay type: binding, Micromonospora echinospora
# Excerpt: CalC has 5 tryptophan and no cysteine residues and is unaffected by the reductive activator dithiothreitol (DTT). As the concentration of calicheamicin (3) increases in the absence of DTT there is little change in the CalC Trp fluorescence intensity.
# [7] = system: supercoiled pBlusecript plasmid DNA; assay: In vitro calicheamicin-induced DNA cleavage assay (agarose gel); assay type: biochemical
# Protocol: To test this theory, preliminary assays were performed with supercoiled pBlusecript plasmid DNA (“pBS”) as the template, and dithiothreitol (“DTT”) as the reductive initiator. In a typical assay, purified mbp-CalC (15.0 nM) and 30.0 nM calicheamicin were preincubated for 15 min. in a total volume of 25 μL 40 mM Tris-Cl, pH 7.5, at 37° C. Then 2.5 μL 10 mM DTT stock solution was added to the assay solution, and the assay was incubated an additional 1 hour at 37° C. DNA fragmentation was assessed by electrophoresis on a 1% agarose gel stained with ethidium bromide.
# Reconstitution of apo-mbp-CalC was accomplished by preincubation with 1 mM FeSO4 (Fe^+2) or FeCl3 (Fe^+3) prior to the activity assay as previously described.
# [8] = system: yeast; assay: Calicheamicin resistance on transgenic expression of calC in yeast; assay type: cell-based
# Excerpt: as §3
# [9] = system: E. coli; assay: Growth of cosmid/plasmid-carrying clones on LB plates containing calicheamicin (maximum tolerated concentration); assay type: cell-based; details: for Maximum tolerated concentration of calicheamicin: LB plates
# Protocol: To isolate the gene(s) responsible for calicheamicin resistance in Micromonospora, clones conferring calicheamicin resistance were selected by growth of a Micromonospora genomic bifunctional cosmid library on LB plates containing ampicillin (50 μg ml^−1) and calicheamicin (0.25 μg ml^−1). […] Restriction mapping of these clones localized the desired phenotype to a ˜2kb PstI-SacI fragment of DNA. (FIG. 2). Maximum tolerated concentrations of calicheamicin on the LB plates was ascertained. The results are as follows:
# The proximal 1 kb of this fragment carried the single orf calD while the distal 1 kb presented orf calC. […] Therefore, it was hypothesized that calD was not responsible for calicheamicin resistance. To rule out calD as being responsible for calicheamicin resistance, a subclone was engineered (pJT1224) to contain an intact calD, but the truncated calC gene. This subclone was not able to confer resistance to calicheamicin. Next, a subclone containing the calC region was constructed (pJT1232). This clone conferred calicheamicin resistance, as indicated in the above chart.
# To ascertain the amino acid sequence of CalC and learn its properties, calC was cloned into a pMAL-C2 vector. (pMAL-C2 by itself could not confer calicheamicin resistance. See above chart.) The resulting plasmid, pRE7, which contained calC, conferred resistance to calicheamicin. See above chart. Plasmid pRE7 was then induced with isopropyl Beta-D-thiogalactoside (“IPTG”) to overexpress CalC. Induced pRE7 conferred resistance to calicheamicin and produced a maltose-binding protein CalC fusion protein (mbp-CalC). This resulting overexpression of CalC increased calicheamicin resistance 10^2-fold in vivo. See above chart.
molecule,measurement,setting,value
calicheamicin,Maximum fluorescence obtained upon cleavage of break light A,"[1]; 3.2 nM break light A, 37° C.",identical to that observed with DNaseI
same,Increase in calicheamicin resistance on transgenic expression of calC,[2],10^5 fold
same,Rate of cleavage of molecular break light B compared with break light A,[3],identical rate
same,Increase in calicheamicin resistance on transgenic expression of calC,[4],100 fold
same,Increase in resistance to calicheamicin on transgenic expression of calC,[5],10 fold
same,Binding to CalC (CalC Trp fluorescence intensity),[6]; addition of DTT to activate calicheamicin,increased binding
same,Change in CalC Trp fluorescence intensity,"[6]; increasing calicheamicin concentration, absence of DTT",little change
same,DNA cleavage,[7]; in the absence of DTT,no DNA cleavage
same,DNA cleavage,[7]; in the presence of DTT and calicheamicin,efficient cleavage
same,Increase in calicheamicin resistance on transgenic expression of calC,[8],50 fold
same,Maximum tolerated concentration of calicheamicin,"[9]; cosmids 3a, 4a, 10a, 13a, and 16a",0.5 µg/mL
same,Maximum tolerated concentration of calicheamicin,[9]; induced pRE7 (IPTG),50.0 µg/mL
same,Maximum tolerated concentration of calicheamicin,[9]; pJT1214 and pJT1232,5.0 µg/mL
same,Maximum tolerated concentration of calicheamicin,"[9]; pJT1224, pAP6, Pre1, and control plasmids pUC18, pBluescript, and pMAL-C2",<0.01 µg/mL
same,Maximum tolerated concentration of calicheamicin,[9]; pRE7 (calC in pMAL-C2),20.0 µg/mL
same,Increase in calicheamicin resistance on overexpression of CalC,"[9]; induced pRE7, in vivo",10^2 fold
esperamicin,Maximum fluorescence obtained upon cleavage of break light A,"[1]; 3.2 nM break light A, 37° C.",identical to that observed with DNaseI
B1,Change of fluorescence over time,"[1]; 3.2 nM break light A, 37° C.",no change
same,Change of fluorescence over time,"[3]; 3.2 nM break light B, 37° C.",increase of fluorescence
same,"Fluorescence maximum intensity upon complete cleavage, relative to that observed with DNaseI",[3]; same concentration of molecular break light,75%
B2,Effect on esperamicin-induced cleavage of DNA,[1],no effect
same,Excess of CalC giving complete inhibition of calicheamicin-mediated DNA cleavage,"[1]; 3.6 pM break light A, 3.5 nM calicheamicin",roughly 2 fold
same,Inhibition of calicheamicin mediated DNA cleavage,[1]; CalC in a two-fold molar excess of calicheamicin,completely abolishes

# Reference: patent US6733998B1, “Micromonospora echinospora genes coding for biosynthesis of calicheamicin and self-resistance thereto” (priority 1998, dated 2004)
